# Reference: patent US9447038B2 (SANOFI, priority 2012, dated 2016)
# Structures can show the parent of a compound that is named as a salt.
# Biological target: human CXCR3-A receptor (Homo sapiens (Human), UniProt P49682)
# Test: 125I-CXCL10 competition radioligand binding assay;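 note: One-hour incubation of membranes with tracer, bound radioligand separated by glass fibre filtration, IC50 derived from four-parameter nonlinear fit of competition curves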
# Settings: displacement of 125I-CXCL10 from membranes of CHO cells expressing human recombinant CXCR3-A
# human CXCR3-A receptor, sequence (P49682 whole entry): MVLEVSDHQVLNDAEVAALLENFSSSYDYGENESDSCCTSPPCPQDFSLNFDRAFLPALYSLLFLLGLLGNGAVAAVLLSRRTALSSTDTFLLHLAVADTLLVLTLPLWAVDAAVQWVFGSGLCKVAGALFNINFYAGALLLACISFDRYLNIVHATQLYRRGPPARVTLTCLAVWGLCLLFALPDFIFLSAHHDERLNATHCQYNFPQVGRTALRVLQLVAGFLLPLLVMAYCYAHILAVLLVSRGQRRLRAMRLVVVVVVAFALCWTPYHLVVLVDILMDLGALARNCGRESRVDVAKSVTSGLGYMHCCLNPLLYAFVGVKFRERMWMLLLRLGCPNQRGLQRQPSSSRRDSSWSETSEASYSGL
row,Compound,IC50
1,"COc1cc(CN(Cc2ccc(F)cc2)C(CC(=O)O)c2ccc(Cl)cc2)ccc1OCCN1C(=O)CCC1=O (stereo not shown) [Example 165, 3-(4-Chloro-phenyl)-3-[{4-[2-(2,5-dioxo-pyrrolidin-1-yl)-ethoxy]-3-methoxy-benzyl}-(4-fluoro-benzyl)-amino]-propionic acid; hydrochloride]",75 nM
2,"COc1cc(CN(CC2CC2)C(CC(=O)O)c2ccc(Cl)cc2)ccc1OCCN1C(=O)CCC1=O (stereo not shown) [Example 36, 3-(4-Chloro-phenyl)-3-(cyclopropylmethyl-{4-[2-(2,5-dioxo-pyrrolidin-1-yl)-ethoxy]-3-methoxy-benzyl}-amino)-propionic acid]",20 nM
3,"COc1cc(CN(CC2CCCC2)C(CC(=O)O)c2ccc(Cl)cc2)ccc1SCCN1C(=O)CCC1=O (stereo not shown) [Example 188, 3-(4-Chloro-phenyl)-3-(cyclopentylmethyl-{4-[2-(2,5-dioxo-pyrrolidin-1-yl)-ethylsulfanyl]-3-methoxy-benzyl}-amino)-propionic acid]",31 nM
4,"CCCN(Cc1ccc(OCCN2C(=O)CCC2=O)c(F)c1)[C@H](CC(=O)O)c1ccc(Cl)cc1 [Example 52, (R)-3-(4-Chloro-phenyl)-3-({4-[2-(2,5-dioxo-pyrrolidin-1-yl)-ethoxy]-3-fluoro-benzyl}-propyl-amino)-propionic acid]",990 nM
5,"O=C(O)CC(c1ccc(Cl)c(F)c1)N(Cc1ccc(OCCN2C(=O)CCC2=O)c(F)c1)CC1CCCC1 (stereo not shown) [Example 60, 3-(4-Chloro-3-fluoro-phenyl)-3-(cyclopentylmethyl-{4-[2-(2,5-dioxo-pyrrolidin-1-yl)-ethoxy]-3-fluoro-benzyl}-amino)-propionic acid]",243 nM
6,"COc1cc(CN(CC2CCCCC2)C(CC(=O)O)c2ccc3c(c2)CCO3)ccc1OCCN1C(=O)CCC1=O (stereo not shown) [Example 148, 3-(Cyclohexylmethyl-{4-[2-(2,5-dioxo-pyrrolidin-1-yl)-ethoxy]-3-methoxy-benzyl}-amino)-3-(2,3-dihydro-benzofuran-5-yl)-propionic acid]",28 nM
7,"CCCCN(Cc1ccc(OCCN2C(=O)CCC2=O)c(F)c1)C(CC(=O)O)c1ccc(Cl)cc1 (stereo not shown) [Example 54, 3-(Butyl-{4-[2-(2,5-dioxo-pyrrolidin-1-yl)-ethoxy]-3-fluoro-benzyl}-amino)-3-(4-chloro-phenyl)-propionic acid]",306 nM
8,"CCN(Cc1ccc(OCCn2c(=O)ccn(C)c2=O)c(OC)c1)C(CC(=O)O)c1ccc(Cl)c(Cl)c1 (stereo not shown) [Example 126, 3-(3,4-Dichloro-phenyl)-3-(ethyl-{3-methoxy-4-[2-(3-methyl-2,6-dioxo-3,6-dihydro-2H-pyrimidin-1-yl)-ethoxy]-benzyl}-amino)-propionic acid]",310 nM
9,"Cc1cc(CN(CC2CC2)C(CC(=O)O)c2ccc3c(c2)CCO3)ccc1CCCN1C(=O)CCC1=O (stereo not shown) [Example 142, 3-(Cyclopropylmethyl-{4-[3-(2,5-dioxo-pyrrolidin-1-yl)-propyl]-3-methyl-benzyl}-amino)-3-(2,3-dihydro-benzofuran-5-yl)-propionic acid]",211 nM
10,"CCCCN(Cc1ccc(OCCN2C(=O)CCC2=O)c(OC)c1)C1c2ccc(Cl)cc2CC1C(=O)O (stereo not shown) [Example 168, 1-(Butyl-{4-[2-(2,5-dioxo-pyrrolidin-1-yl)-ethoxy]-3-methoxy-benzyl}-amino)-5-chloro-indan-2-carboxylic acid]",237 nM
11,CCCCN(Cc1ccc(OCCN2C(=O)CCC2=O)c(OC)c1)C(C(=O)O)c1ccc(Cl)cc1 (stereo not shown) [Example 184],336 nM
12,"CCCCN(Cc1ccc(OCCN2C(=O)CCC2=O)c(F)c1)C(CC(=O)O)c1ccc(Cl)c(F)c1 (stereo not shown) [Example 59, 3-(Butyl-{4-[2-(2,5-dioxo-pyrrolidin-1-yl)-ethoxy]-3-fluoro-benzyl}-amino)-3-(4-chloro-3-fluoro-phenyl)-propionic acid]",109 nM
13,"O=C(O)CC(c1ccc(Cl)c(Cl)c1)N(Cc1ccc(OCCN2C(=O)CCC2=O)c(Cl)c1)CC1CC1 (stereo not shown) [Example 106, 3-({3-Chloro-4-[2-(2,5-dioxo-pyrrolidin-1-yl)-ethoxy]-benzyl}-cyclopropylmethyl-amino)-3-(3,4-dichloro-phenyl)-propionic acid; hydrochloride]",223 nM
14,"CCc1cc(CN(CC2CC2)C(CC(=O)O)c2ccc(Cl)c(Cl)c2)ccc1OCCN1C(=O)CCC1=O (stereo not shown) [Example 96, 3-(Cyclopropylmethyl-{4-[2-(2,5-dioxo-pyrrolidin-1-yl)-ethoxy]-3-ethyl-benzyl}-amino)-3-(3,4-dichloro-phenyl)-propionic acid]",78 nM
15,"COc1cc(CN(CC2CC2)C(CC(=O)O)c2ccc(Cl)c(Cl)c2)ccc1SCCN1C(=O)CCC1=O (stereo not shown) [Example 191, 3-(Cyclopropylmethyl-{4-[2-(2,5-dioxo-pyrrolidin-1-yl)-ethylsulfanyl]-3-methoxy-benzyl}-amino)-3-(3,4-dichloro-phenyl)-propionic acid]",20 nM
16,"COc1cc(CN(CC2CCCC2)C(CC(=O)O)c2ccc(C(F)(F)F)cc2)ccc1OCCN1C(=O)CCC1=O (stereo not shown) [Example 180, 3-(Cyclopentylmethyl-{4-[2-(2,5-dioxo-pyrrolidin-1-yl)-ethoxy]-3-methoxy-benzyl}-amino)-3-(4-trifluoromethyl-phenyl)-propionic acid]",198 nM

row,Compound,IC50
1,"COc1cc(CN(CC2CCCC2)C2c3ccc(Cl)cc3CC2C(=O)O)ccc1OCCN1C(=O)CCC1=O (stereo not shown) [Example 171, 5-Chloro-1-(cyclopentylmethyl-{4-[2-(2,5-dioxo-pyrrolidin-1-yl)-ethoxy]-3-methoxy-benzyl}-amino)-indan-2-carboxylic acid]",389 nM
2,"CCCN(Cc1ccc(OCCN2C(=O)CCC2=O)c(Cl)c1)C(CC(=O)O)c1ccc(Cl)c(F)c1 (stereo not shown) [Example 105, 3-({3-Chloro-4-[2-(2,5-dioxo-pyrrolidin-1-yl)-ethoxy]-benzyl}-propyl-amino)-3-(4-chloro-3-fluoro-phenyl)-propionic acid]",211 nM
3,"COc1cc(CN(CC(C)C)C(CC(=O)O)c2ccc(Cl)cc2)ccc1CCCN1C(=O)CCC1=O (stereo not shown) [Example 134, 3-(4-Chloro-phenyl)-3-({4-[3-(2,5-dioxo-pyrrolidin-1-yl)-propyl]-3-methoxy-benzyl}-isobutyl-amino)-propionic acid]",296 nM
4,"CCCN(Cc1ccc(OCCN2C(=O)CCC2=O)c(C)c1)C(CC(=O)O)c1ccc(C)cc1 (stereo not shown) [Example 178, 3-({4-[2-(2,5-Dioxo-pyrrolidin-1-yl)-ethoxy]-3-methyl-benzyl}-propyl-amino)-3-p-tolyl-propionic acid]",183 nM
5,"O=C(O)C[C@@H](c1ccc(Cl)cc1)N(Cc1ccc(OCCN2C(=O)CCC2=O)c(Cl)c1)CC1CCC1 [Example 104, (S)-3-({3-Chloro-4-[2-(2,5-dioxo-pyrrolidin-1-yl)-ethoxy]-benzyl}-cyclobutylmethyl-amino)-3-(4-chloro-phenyl)-propionic acid]",145 nM
6,"CCCN(Cc1ccc(OCCN2C(=O)CCC2=O)c(C)c1)C(c1ccc(Cl)cc1)C(C)C(=O)O (stereo not shown) [Example 194, 3-(4-Chloro-phenyl)-3-({4-[2-(2,5-dioxo-pyrrolidin-1-yl)-ethoxy]-3-methyl-benzyl}-propyl-amino)-2-methyl-propionic acid]",272 nM
7,"CCCCN(Cc1ccc(OCCN2C(=O)CCC2=O)c(F)c1)C(CC(=O)O)c1ccc(Cl)c(Cl)c1 (stereo not shown) [Example 64, 3-(Butyl-{4-[2-(2,5-dioxo-pyrrolidin-1-yl)-ethoxy]-3-fluoro-benzyl}-amino)-3-(3,4-dichloro-phenyl)-propionic acid]",456 nM
8,"CCCN(Cc1ccc(OCCN2C(=O)CCC2=O)c(Cl)c1)C(CC(=O)O)c1ccc(Cl)c(Cl)c1 (stereo not shown) [Example 107, 3-({3-Chloro-4-[2-(2,5-dioxo-pyrrolidin-1-yl)-ethoxy]-benzyl}-propyl-amino)-3-(3,4-dichloro-phenyl)-propionic acid]",570 nM
9,"Cc1cc(CN(CC2CCCCC2)[C@H](CC(=O)O)c2ccc(Cl)cc2)ccc1OCCN1C(=O)CN(C)C1=O [Example 31, (R)-3-(4-Chloro-phenyl)-3-(cyclohexylmethyl-{3-methyl-4-[2-(3-methyl-2,5-dioxo-imidazolidin-1-yl)-ethoxy]-benzyl}-amino)-propionic acid]",416 nM
10,"CCCN(Cc1ccc(OCCN2C(=O)CCC2=O)c(F)c1)C(c1ccc(Cl)cc1)C(C)C(=O)O (stereo not shown) [Example 195, 3-(4-Chloro-phenyl)-3-({4-[2-(2,5-dioxo-pyrrolidin-1-yl)-ethoxy]-3-fluoro-benzyl}-propyl-amino)-2-methyl-propionic acid]",342 nM
11,"CCCCN(Cc1ccc(CCCN2C(=O)CCC2=O)c(OC)c1)C(CC(=O)O)c1ccc(Cl)cc1 (stereo not shown) [Example 135, 3-(Butyl-{4-[3-(2,5-dioxo-pyrrolidin-1-yl)-propyl]-3-methoxy-benzyl}-amino)-3-(4-chloro-phenyl)-propionic acid]",116 nM
12,"Cc1cc(CN(CC2CCCC2)C(CC(=O)O)c2ccc(Cl)c(Cl)c2)ccc1OCCN1C(=O)CCC1=O (stereo not shown) [Example 82, 3-(Cyclopentylmethyl-{4-[2-(2,5-dioxo-pyrrolidin-1-yl)-ethoxy]-3-methyl-benzyl}-amino)-3-(3,4-dichloro-phenyl)-propionic acid]",119 nM
13,"COc1cc(CN(CC2CCCC2)C(CC(=O)O)c2ccc3c(c2)CCO3)ccc1OCCn1c(=O)ccn(C)c1=O (stereo not shown) [Example 127, 3-(Cyclopentylmethyl-{3-methoxy-4-[2-(3-methyl-2,6-dioxo-3,6-dihydro-2H-pyrimidin-1-yl)-ethoxy]-benzyl}-amino)-3-(2,3-dihydro-benzofuran-5-yl)-propionic acid]",38 nM
14,"COc1cc(CN(C)C(c2ccc(Cl)cc2)C(C)C(=O)O)ccc1OCCn1c(=O)ccn(C)c1=O (stereo not shown) [Example 152, 3-(4-Chloro-phenyl)-3-({3-methoxy-4-[2-(3-methyl-2,6-dioxo-3,6-dihydro-2H-pyrimidin-1-yl)-ethoxy]-benzyl}-methyl-amino)-2-methyl-propionic acid]",754 nM
15,"COc1cc(CN(CC2CCCCC2)C(CC(=O)O)c2ccc(Cl)c(F)c2)ccc1OCCN1C(=O)CCC1=O (stereo not shown) [Example 44, 3-(4-Chloro-3-fluoro-phenyl)-3-(cyclohexylmethyl-{4-[2-(2,5-dioxo-pyrrolidin-1-yl)-ethoxy]-3-methoxy-benzyl}-amino)-propionic acid]",43 nM
